Test results from patent US20110287953A1, “METHOD FOR DISCOVERING POTENTIAL DRUGS” (priority 2010, published 2011).

What was measured:
[1] = test system: HCC cell lines, Mahlavu, PLC5, HepG2, and Huh7; test: MTT cell viability test in HCC cell lines
Protocol: (§1) The HCC cell lines, Mahlavu, PLC5, HepG2, and Huh7, were cultured in Dulbecco's Modified Eagle Medium (DMEM; Seromed, Berlin, Germany) supplemented with 10% heat-inactivated fetal bovine serum, 100 μg/ml streptomycin, 100 μg/ml penicillin, and 2 mM L-glutamine in a humidified atmosphere containing 5% CO2 at 37° C. […] The cells were exposed to different concentrations of the small molecules for 72 hours. Control cells were incubated in the absence of small molecules. Afterwards, the cells were incubated with medium containing MTT for 2 hours. […] For the clonogenic assay, Huh7 cells were seeded out in appropriate dilutions in a 6-well plate and treated with selected small molecules at various concentrations for 15 days. Colonies were fixed with glutaraldehyde (6.0% v/v), stained with crystal violet (0.5% w/v), and counted.

[2] = test system: HCC cell lines; test: Drug efficacy label of top 10 CMap drugs (MTT or clonogenic); type: cell-based; conditions: Table 2-3; labels (1) and (4); gene set in which the drug ranked top 10;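 further: label 1 means effective by MTT or clonogenic assay and 4 means ineffective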
Protocol: as §1

[3] = test system: Huh7 cells; test: Clonogenic assay; type: cell-based; conditions: colony number at 10 μM; for inhibition at 10 µM: Homo sapiens, Huh-7, 360 h
Protocol: The HCC cell lines, Mahlavu, PLC5, HepG2, and Huh7, were cultured in Dulbecco's Modified Eagle Medium (DMEM; Seromed, Berlin, Germany) supplemented with 10% heat-inactivated fetal bovine serum, 100 μg/ml streptomycin, 100 μg/ml penicillin, and 2 mM L-glutamine in a humidified atmosphere containing 5% CO2 at 37° C. The viability of the exposed cells was determined using the MTT cell viability assay kit (Sigma-Aldrich, St. Louis, USA), according to the manufacturer's instructions. […] The cells were exposed to different concentrations of the small molecules for 72 hours. Control cells were incubated in the absence of small molecules. Afterwards, the cells were incubated with medium containing MTT for 2 hours. The optical density at 450 nm was measured using a microplate reader (Spectral Max250). For the clonogenic assay, Huh7 cells were seeded out in appropriate dilutions in a 6-well plate and treated with selected small molecules at various concentrations for 15 days. Colonies were fixed with glutaraldehyde (6.0% v/v), stained with crystal violet (0.5% w/v), and counted.

[4] = test system: Huh-7 cells; conditions: proliferation of Huh-7 cells, other reports; cited from earlier work
[5] = test system: hepatocellular carcinoma or HCC; conditions: Table 2-3; labels (2) and (3), PubMed references; cited from earlier work
[6] = test system: NPC cell lines, TW01, TW03, TW04, BM1
Protocol: NPC cell lines, TW01, TW03, and TW04 provided by Dr. C T Lin (National Taiwan University, Taiwan), were derived from primary nasopharyngeal tumors of Chinese patients with de novo NPC and had been tested and authenticated (27). NPC cell line BM1, provided by Dr. S K Liao (Chang Gung University, Taiwan), was derived from bone metastatic lesions of an NPC patient (28). NPC cell lines were maintained in DMEM with 10% FBS containing penicillin (100 U/mL) and streptomycin (100 μg/mL) in 5% CO2 at 37° C. Cell viability was determined using the XTT cell viability assay kit (Sigma-Aldrich, St. Louis, USA), according to the manufacturer's instructions. […] Cells were exposed with or without small molecules for 72 hours at different concentrations. Then, the cells were incubated with medium containing XTT in an amount equal to 20% of the culture medium volume for 2 hours. Optical density was measured using a microplate reader (Spectral Max250) at 450 nm.

[7] = test system: leukemic cells; conditions: cited from earlier work
[8] = test system: B16 melanoma cells; conditions: cited from earlier work
[9] = 72 h, Table 2-2, HCC cell lines, MTT
[10] = 72 h, Table 3-1, HCC cell lines, MTT

Row | SMILES | IC50 [1, 9] [µM] | IC50 [1, 10] [µM] | drug efficacy label [2] | inhibition at 10 µM ([3]; Table 3-1, 15 days) [%] | Clonogenic assay ([3]; Table 2-2, 15 days) | drug efficacy label [5] | further results
1 | O=c1cc(-c2ccc(O)c(O)c2)oc2cc(O)cc(O)c12 [luteolin] | > 10 | > 10 | luteolin (4) | > 50 | Ineffective | – | IC50 [4]: ~50 µM
2 | Nc1ccccc1NC(=O)c1ccc(CNC(=O)OCc2cccnc2)cc1 [MS-275] | – | – | – | – | – | MS-275 (2) | –
3 | CN1CCN(CCCN2c3ccccc3Sc3ccc(C(F)(F)F)cc32)CC1 [trifluoperazine] | > 10 | > 10 | trifluoperazine (1) | > 50 | Effective (Effectiveness in clonogenic assay is defined as reducing more than 50% colony number at 10 μM) | – | cytotoxicity in NPC cell lines [6]: Dose-dependent cytotoxicity; apoptosis [7]: can induce apoptosis; apoptosis [8]: can induce apoptosis
4 | Cc1cc(/C=C/c2ccc3cc(N(C)C)ccc3[n+]2C)c(C)n1-c1ccccc1 [pyrvinium] | – | 0.1 to 1 | – | – | – | pyrvinium (3) | –
5 | CC[C@@H](CO)NC(=O)[C@@H]1C=C2c3cccc4[nH]cc(c34)C[C@H]2N(C)C1 [methylergometrine] | – | – | methylergometrine (4) | – | – | – | IC50 ([1]; 72 h): > 10 µM; Clonogenic assay ([3]; Table 3-1, 15 days): Ineffective
6 | O=C(CCCCCCC(=O)Nc1ccccc1)NO [vorinostat] | – | – | – | – | – | vorinostat (2) | –
7 | CC(/C=C/C(=O)NO)=C\[C@@H](C)C(=O)c1ccc(N(C)C)cc1 [trichostatin A] | – | – | trichostatin A (1) | – | – | – | IC50 ([1]; Table 2-2, HCC cell lines, 72 hours, MTT): 0.1 to 1 µM; IC50 ([1]; Table 3-1, HCC cell lines, 72 hours, MTT): 0.1 to 1 µM; cytotoxicity in NPC cell lines [6]: Dose-dependent cytotoxicity
8 | CCOc1cc(CC(=O)N[C@@H](CC(C)C)c2ccccc2N2CCCCC2)ccc1C(=O)O [Repaglinide] | > 10 | – | repaglinide (4) | – | Ineffective | – | –
9 | CC(C(O)c1ccc(O)cc1)N1CCC(Cc2ccccc2)CC1 (stereo not drawn) [ifenprodil] | – | > 10 | – | – | – | ifenprodil (3) | –
10 | Clc1ccc(C(OCCN2CCCCC2)c2ccccc2)cc1 (stereo not drawn) [cloperastine] | – | > 10 | cloperastine (4) | > 50 | – | – | –
